Experimental data published in US20050014834A1, “Selective anesthetic agents and methods of identifying the same” (priority 2001, published 2005).

Columns and labels:
GABAA receptors = details: cited from earlier work; for potentiation of the action of GABA: native and all recombinant GABAA receptors studied to date
[1] = target: T1, human GABAA receptor β2 subunit (position 289 mutant) (Homo sapiens, UniProt P14867+P47870, N289S); details: recombinant receptors expressed in cell lines; cited from earlier work
T1 construct: expressed in transfected cells
T1 sequence (P47870 25-512 N289S limits assumed): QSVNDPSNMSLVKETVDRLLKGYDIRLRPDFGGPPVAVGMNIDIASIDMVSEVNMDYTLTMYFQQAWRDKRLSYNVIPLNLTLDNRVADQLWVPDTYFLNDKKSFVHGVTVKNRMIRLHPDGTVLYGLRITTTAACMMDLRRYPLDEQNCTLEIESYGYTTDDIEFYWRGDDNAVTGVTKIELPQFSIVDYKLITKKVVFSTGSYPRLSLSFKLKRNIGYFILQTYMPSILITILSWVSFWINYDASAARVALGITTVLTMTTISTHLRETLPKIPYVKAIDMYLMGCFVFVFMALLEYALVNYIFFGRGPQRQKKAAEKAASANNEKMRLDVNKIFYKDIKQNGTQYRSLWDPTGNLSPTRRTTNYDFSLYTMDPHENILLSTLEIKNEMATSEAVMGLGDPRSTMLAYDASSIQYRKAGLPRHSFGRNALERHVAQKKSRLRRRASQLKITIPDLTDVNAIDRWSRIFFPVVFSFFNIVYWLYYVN
T1 sequence (P14867 28-456): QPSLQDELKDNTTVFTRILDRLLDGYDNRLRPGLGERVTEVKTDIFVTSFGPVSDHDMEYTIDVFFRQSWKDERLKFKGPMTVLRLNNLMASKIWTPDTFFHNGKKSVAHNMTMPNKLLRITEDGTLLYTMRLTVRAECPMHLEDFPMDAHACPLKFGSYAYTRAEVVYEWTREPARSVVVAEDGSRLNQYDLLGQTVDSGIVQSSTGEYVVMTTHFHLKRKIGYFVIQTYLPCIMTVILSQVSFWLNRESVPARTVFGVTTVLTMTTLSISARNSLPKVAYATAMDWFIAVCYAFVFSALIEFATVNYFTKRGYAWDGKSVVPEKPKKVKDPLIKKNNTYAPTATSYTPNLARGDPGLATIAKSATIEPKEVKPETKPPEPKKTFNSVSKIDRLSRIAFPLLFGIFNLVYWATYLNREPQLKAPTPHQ
T1 sequence (P18507 40-467 partner limits assumed): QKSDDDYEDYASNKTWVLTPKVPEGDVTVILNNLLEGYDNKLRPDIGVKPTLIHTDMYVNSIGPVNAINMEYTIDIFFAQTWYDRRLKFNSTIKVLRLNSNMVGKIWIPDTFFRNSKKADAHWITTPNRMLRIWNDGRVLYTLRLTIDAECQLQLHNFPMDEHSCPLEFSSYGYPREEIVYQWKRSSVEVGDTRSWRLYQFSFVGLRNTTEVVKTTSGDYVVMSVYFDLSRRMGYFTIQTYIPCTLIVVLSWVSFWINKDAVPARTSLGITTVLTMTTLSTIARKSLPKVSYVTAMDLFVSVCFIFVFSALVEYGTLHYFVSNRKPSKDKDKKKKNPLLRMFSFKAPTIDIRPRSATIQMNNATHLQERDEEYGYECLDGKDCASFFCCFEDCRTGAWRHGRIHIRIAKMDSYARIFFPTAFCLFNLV

[2] = system: β2N289S knock-in and wildtype mice; experiment: Loss of righting reflex (LORR) as behavioural measure of anesthesia; assay type: in vivo, mouse
Protocol: Loss of righting reflex (LORR) was used as a crude behavioural measure of anesthesia. Mice (n=11 wildtype, n=10 knock-in for each dose) were dosed intraperitoneally (i.p.) with 20, 30 or 40 mg/kg etomidate. Each mouse was placed in a separate cage and tested for LORR by gently rolling the mouse on it back. When the righting reflex had disappeared (usually around 90 seconds) the mouse was laid on it back on a piece of corrugated plastic and the time until righting reflex was regained was recorded. In order to avoid excessive heat loss during anesthesia a heat lamp was placed above the mice. To control for non-specific changes in anesthetic sensitivity induced by the mutation two different classes of anesthetics were also tested in this model: pentobarbitone, 50 mg/kg i.p. (n=11) and midazolam, 80 mg/kg i.p. (n=5).

[3] = target: GABAA receptor β3 subunit N289S (Homo sapiens, UniProt P28472+Q16445, N290S); details: asparagine 289 of β3 to serine; cited from earlier work
Chain of GABAA receptor β3 subunit N289S (P28472 26-473 N290S, one chain of several): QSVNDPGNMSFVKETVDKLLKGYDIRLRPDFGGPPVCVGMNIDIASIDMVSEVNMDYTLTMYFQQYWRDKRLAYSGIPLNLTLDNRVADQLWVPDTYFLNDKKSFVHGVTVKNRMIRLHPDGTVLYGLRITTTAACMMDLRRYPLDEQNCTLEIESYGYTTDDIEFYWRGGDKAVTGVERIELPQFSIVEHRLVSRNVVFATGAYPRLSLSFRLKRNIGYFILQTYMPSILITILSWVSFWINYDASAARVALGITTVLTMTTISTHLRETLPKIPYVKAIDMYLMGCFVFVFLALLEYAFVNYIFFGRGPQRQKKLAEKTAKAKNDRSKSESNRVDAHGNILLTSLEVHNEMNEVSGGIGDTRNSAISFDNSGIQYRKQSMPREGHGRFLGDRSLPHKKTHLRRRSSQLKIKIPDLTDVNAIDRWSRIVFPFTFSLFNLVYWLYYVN
Chain of GABAA receptor β3 subunit N289S (Q16445 20-453, one chain of several): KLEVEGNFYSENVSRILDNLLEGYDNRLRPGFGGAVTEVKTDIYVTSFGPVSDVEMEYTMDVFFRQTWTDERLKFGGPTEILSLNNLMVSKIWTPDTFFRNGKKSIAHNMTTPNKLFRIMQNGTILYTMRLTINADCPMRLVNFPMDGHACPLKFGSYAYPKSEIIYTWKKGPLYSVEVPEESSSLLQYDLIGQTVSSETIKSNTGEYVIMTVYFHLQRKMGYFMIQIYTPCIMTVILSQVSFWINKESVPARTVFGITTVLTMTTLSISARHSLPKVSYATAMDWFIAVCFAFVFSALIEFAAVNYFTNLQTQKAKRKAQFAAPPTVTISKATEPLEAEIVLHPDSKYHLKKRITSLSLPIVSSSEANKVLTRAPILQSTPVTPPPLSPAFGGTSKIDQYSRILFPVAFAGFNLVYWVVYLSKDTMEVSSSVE

[4] = system: β2N289S knock-in and wildtype mice; experiment: Post-anaesthetic slow wave sleep by EEG (hypnotic hangover); assay type: in vivo, mouse; details: 12.5 mg/kg intravenous, FIG. 5
Protocol: In order to quantify the amount of post-anaesthetic sleep, wildtype (n=4) and knock-in (n=4) mice were implanted with radiotelemetry transmitters for the measurement of electroencephalographic (EEG) data. Mice were allowed to recover from the surgical procedure for 13 days before experiment. Baseline EEG data was recorded on day 1 of the experimental protocol. On the 2nd experimental day, mice were dosed with 12.5 mg/kg etomidate by the intravenous route and EEG data was continuously sampled. EEG data sampled at 250 Hz (transmitter bandwidth 0.5-100 Hz, low pass data filter 70 Hz). Data analysed using Somnologica 3 in 8 sec epochs and scored for either “wake” or “slow wave sleep” according to standard electrophysiological criteria (van Gool, W. A. & Mirmiran, M., Sleep, 9, 335 (1986)). Following recovery from etomidate anaesthesia, the amount of slow wave sleep was expressed as percentage of the circadian timed matched baseline.

[5] = system: β2N289S knock-in and wildtype mice; experiment: Level of anaesthesia by electroencephalography (EEG burst suppression); assay type: in vivo, mouse; details: 12.5 mg/kg intravenous; FIG. 4
Protocol: In order to compare the depth of anaesthesia in both genotypes, wildtype (n=4) and knock-in (n=4) mice were implanted with radiotelemetry transmitters for the measurement of electroencephalographic (EEG) data. Mice were allowed to recover from the surgical procedure for 14-21 days before experiment. Mice were dosed with 12.5 mg/kg etomidate by the intravenous route and EEG data was continuously sampled. Data sampled at 250 Hz (transmitter bandwidth 0.5-100 Hz, low pass data filter 70 Hz). Data analysed using Somnologica 3 in 100 mSec epochs for % suppression activity per minute. Isoelectric window defined as waveform amplitude less than 5 μV (typical peak to peak amplitude ˜250 μV).

[6] = system: β2N289S knock-in and wildtype mice; experiment: Rotarod test of motor co-ordination: recovery following etomidate anesthesia; assay type: in vivo, mouse; details: for time mice could stay on rotarod: 90 minutes after testing began, rod 16 rpm, 120 second trial
Protocol: Wildtype (n=30) and knock-in (n=30) mice were trained to perform the rotarod test of motor co-ordination. Mice were placed on a rod revolving at 16 rpm and the time taken for them to fall off recorded. Each mouse was given successive training trials until it could remain on the rod for 3 consecutive trials of 120 second duration. Mice were then split into 3 groups (n=10 for each genotype) and dosed i.p. with 15, 20 or 30 mg/kg etomidate. Mice were then placed back on the rotarod every 10 minutes (for 90 minutes), starting from the mean time for recovery of righting reflex for a given dose (obtained from experiment 1). In this way the rate of recovery of the ability to perform a motor task could be assessed.

CC(=O)[C@H]1CC[C@H]2[C@@H]3CC[C@H]4C[C@H](O)CC[C@]4(C)[C@H]3C(=O)C[C@]12C [alphaxalone]
potentiation of the action of GABA (GABAA receptors): markedly potentiate the action of GABA

CCOC(=O)c1cncn1[C@H](C)c1ccccc1 [etomidate]
sensitivity of mutant β2 (position 289) receptors [1]: insensitive
time until righting reflex had disappeared ([2]; after i.p. dosing 20, 30 or 40 mg/kg, 'usually'): around 90 seconds
duration of LORR, knock-in versus wildtype mice ([2]; etomidate 20, 30 or 40 mg/kg i.p., F1,57=0.005, p=0.9498, FIG. 2): nearly significantly similar
effect of β3 N289S mutation on GABA-modulatory and GABA-mimetic effects [3]: strongly suppressed
level of slow wave sleep versus circadian matched baseline after recovery ([4]; knock-in mice, P>0.05): not statistically different
level of slow wave sleep versus circadian matched baseline after recovery ([4]; wildtype mice, up to 3 hours post recovery, ANOVA P<0.05): enhanced level of sleep
EEG burst suppression (% of each minute EEG in suppression), wildtype versus knock-in [5]: no significant difference in the EEG pattern of both genotypes
β subunit preference of potentiation and direct activation of receptors (GABAA receptors; β2 or β3 versus β1 subunit): favours receptors containing either a β2 or a β3 subunit, versus a β1 subunit
rate of recovery of rotarod performance, wildtype versus knock-in ([6]; 15 mg/kg i.p.): recovered rotarod performance at a similar rate
rate of recovery of rotarod performance, wildtype versus knock-in ([6]; 20 mg/kg and especially 30 mg/kg i.p.): wildtype mice recovered more slowly than knock-in mice
recovery of performance in the rotarod assay, β2N289S mice compared with wildtype ([6]; anesthetic doses): dramatically faster recovery
time mice could stay on rotarod ([6]; knock-in mice, 15 mg/kg i.p.): approximately 120 seconds
time mice could stay on rotarod ([6]; wildtype mice, 15 mg/kg i.p.): approximately 120 seconds
effect of dose on rate of rotarod recovery ([6]; wildtype mice, 15, 20, 30 mg/kg i.p., F18,243=5.80, p<0.00005, FIG. 3): clear effect on the rate of recovery with increasing dose

Cc1ncc2n1-c1ccc(Cl)cc1C(c1ccccc1F)=NC2 [midazolam]
duration of LORR, knock-in versus wildtype mice ([2]; midazolam 80 mg/kg i.p., F1,28=0.61, p=0.44): no significant difference

CCCC(C)C1(CC)C(=O)NC(=O)NC1=O (stereo not drawn) [pentobarbitone]
duration of LORR, knock-in versus wildtype mice ([2]; pentobarbitone 50 mg/kg i.p., F1,28=0.61, p=0.44): no significant difference

CC(C)c1cccc(C(C)C)c1O [propofol]
potentiation of the action of GABA (GABAA receptors): markedly potentiate the action of GABA
